Legend:
P300 = P300 (Homo sapiens, UniProt Q09472); assay: Immunoblotting of P300 protein levels in LNCaP or 22RV1 cells; assay type: cell-based; design: LNCaP or 22RV1 cells that express CBP/P300 proteins were treated with GNE-781 or the bivalent compounds; endogenous in cells; host or cells: LNCaP (clone FGC) or 22RV1 cells; details: percentage of inhibition of p300 at 10 nM (Table 3); read-out: Degradation (10 nM)
Summary of the method: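 LNCaP or 22RV1 cells treated with compounds for indicated hours, DMSO as negative control. RIPA lysates resolved by SDS-PAGE and immunoblotted for P300 or CBP, tubulin or vinculin as loading control; chemiluminescent bands quantitated.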

LNCaP cells = assay: LNCaP cell viability assay (CellTiter-Glo); assay type: cell-based; details: Homo sapiens, 72 h; LNCaP prostate cancer cell viability inhibition, 3 days, CellTiter-Glo (Table 3)
Summary of the method: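 LNCaP cells, 5000/well, exposed to compounds in 12-point 3-fold serial dilution (top 10 μM) for 3 days. Viability by CellTiter-Glo luminescence, normalized to untreated cells; IC50 by least-squares nonlinear regression.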

P300, sequence (Q09472 whole entry): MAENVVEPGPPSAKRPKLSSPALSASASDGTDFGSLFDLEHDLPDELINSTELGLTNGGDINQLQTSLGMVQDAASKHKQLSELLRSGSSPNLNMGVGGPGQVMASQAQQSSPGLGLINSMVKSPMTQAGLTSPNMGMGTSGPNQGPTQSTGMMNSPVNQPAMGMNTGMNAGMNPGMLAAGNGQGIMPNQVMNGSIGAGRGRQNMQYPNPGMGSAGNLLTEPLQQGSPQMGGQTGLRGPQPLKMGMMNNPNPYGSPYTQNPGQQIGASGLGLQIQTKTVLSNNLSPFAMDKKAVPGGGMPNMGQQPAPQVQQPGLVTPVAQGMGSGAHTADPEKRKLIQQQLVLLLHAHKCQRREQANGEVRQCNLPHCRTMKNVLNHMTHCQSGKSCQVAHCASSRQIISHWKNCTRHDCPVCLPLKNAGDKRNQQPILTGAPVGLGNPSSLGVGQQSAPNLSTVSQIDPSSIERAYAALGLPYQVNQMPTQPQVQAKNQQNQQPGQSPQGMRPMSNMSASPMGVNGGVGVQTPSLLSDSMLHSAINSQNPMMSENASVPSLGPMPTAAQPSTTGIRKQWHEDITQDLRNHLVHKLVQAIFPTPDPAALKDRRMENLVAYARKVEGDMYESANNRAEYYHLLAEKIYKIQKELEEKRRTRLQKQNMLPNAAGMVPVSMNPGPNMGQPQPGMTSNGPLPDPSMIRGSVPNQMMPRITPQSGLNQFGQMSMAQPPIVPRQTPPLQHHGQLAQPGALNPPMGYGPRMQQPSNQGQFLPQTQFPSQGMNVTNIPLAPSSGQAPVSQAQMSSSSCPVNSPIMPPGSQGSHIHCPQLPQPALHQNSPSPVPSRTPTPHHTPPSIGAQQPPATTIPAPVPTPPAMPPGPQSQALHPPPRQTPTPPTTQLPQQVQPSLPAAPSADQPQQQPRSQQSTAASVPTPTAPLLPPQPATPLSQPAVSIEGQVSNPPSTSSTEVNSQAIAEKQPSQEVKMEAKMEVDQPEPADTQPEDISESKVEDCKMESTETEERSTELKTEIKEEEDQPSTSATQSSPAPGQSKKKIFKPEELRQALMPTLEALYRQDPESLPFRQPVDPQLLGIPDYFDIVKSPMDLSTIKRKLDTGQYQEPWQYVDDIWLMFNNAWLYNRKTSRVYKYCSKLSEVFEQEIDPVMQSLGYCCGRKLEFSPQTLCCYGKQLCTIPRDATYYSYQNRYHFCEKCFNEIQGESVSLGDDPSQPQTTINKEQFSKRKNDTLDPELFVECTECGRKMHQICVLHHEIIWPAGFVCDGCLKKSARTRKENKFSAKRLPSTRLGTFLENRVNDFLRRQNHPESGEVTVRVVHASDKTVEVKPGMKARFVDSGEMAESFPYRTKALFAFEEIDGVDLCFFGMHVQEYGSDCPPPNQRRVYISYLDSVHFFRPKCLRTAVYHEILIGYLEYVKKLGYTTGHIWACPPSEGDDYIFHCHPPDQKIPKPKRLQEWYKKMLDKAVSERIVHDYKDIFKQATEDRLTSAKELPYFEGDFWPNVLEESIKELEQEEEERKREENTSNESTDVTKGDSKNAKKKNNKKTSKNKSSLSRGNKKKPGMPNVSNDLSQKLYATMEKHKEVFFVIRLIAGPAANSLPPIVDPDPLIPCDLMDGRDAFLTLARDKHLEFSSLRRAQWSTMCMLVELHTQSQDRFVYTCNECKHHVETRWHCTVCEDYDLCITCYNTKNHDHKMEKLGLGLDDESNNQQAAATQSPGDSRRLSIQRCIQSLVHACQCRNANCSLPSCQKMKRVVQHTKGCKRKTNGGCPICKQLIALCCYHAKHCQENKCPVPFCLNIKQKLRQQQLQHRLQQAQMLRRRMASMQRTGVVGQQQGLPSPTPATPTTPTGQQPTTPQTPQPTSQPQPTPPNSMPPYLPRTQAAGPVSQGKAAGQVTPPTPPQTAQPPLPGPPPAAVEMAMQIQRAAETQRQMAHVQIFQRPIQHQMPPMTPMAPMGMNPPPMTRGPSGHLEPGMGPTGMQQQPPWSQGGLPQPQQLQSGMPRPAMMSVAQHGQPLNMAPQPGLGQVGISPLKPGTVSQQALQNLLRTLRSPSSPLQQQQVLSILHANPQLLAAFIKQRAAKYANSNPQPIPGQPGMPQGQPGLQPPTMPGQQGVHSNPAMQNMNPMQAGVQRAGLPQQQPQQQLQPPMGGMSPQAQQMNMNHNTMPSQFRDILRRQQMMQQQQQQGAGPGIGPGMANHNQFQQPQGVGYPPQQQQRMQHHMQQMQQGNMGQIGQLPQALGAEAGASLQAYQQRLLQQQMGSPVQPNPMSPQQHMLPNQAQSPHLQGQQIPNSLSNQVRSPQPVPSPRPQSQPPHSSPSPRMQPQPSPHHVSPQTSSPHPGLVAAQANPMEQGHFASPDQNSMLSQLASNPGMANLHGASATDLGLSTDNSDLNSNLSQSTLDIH

Compound | inhibition at 0.01 µM (P300) | IC50 (LNCaP cells)
CC(=O)N1CCc2c(c(N3CCCc4cc(-c5cnn(C)c5)c(C(F)F)cc43)nn2C2CCN(C(=O)CCCCCNc3ccc4c(c3)n(C)c(=O)n4C3CCC(=O)NC3=O)CC2)C1 (stereo not drawn) [P-116, 3-(5-((6-(4-(5-acetyl-3-(7-(difluoromethyl)-6-(1-methyl-1H-pyrazol-4-yl)-3,4-dihydroquinolin-1(2H)-yl)-4,5,6,7-tetrahydro-1H-pyrazolo[4,3-c]pyridin-1-yl)piperidin-1-yl)-6-oxohexyl)amino)-3-methyl-2-oxo-2,3-dihydro-1H-benzo[d]imidazol-1-yl)piperidine-2,6-dione] | > 80% | 0.0096 µM
CC(=O)N1CCc2c(c(N3CCCc4cc(-c5cnn(C)c5)c(C(F)F)cc43)nn2C2CCN(C(=O)CCCCCOc3cccc4c3C(=O)N(C3CCC(=O)NC3=O)C4=O)CC2)C1 (stereo not drawn) [P-117, 4-((6-(4-(5-Acetyl-3-(7-(difluoromethyl)-6-(1-methyl-1H-pyrazol-4-yl)-3,4-dihydroquinolin-1(2H)-yl)-4,5,6,7-tetrahydro-1H-pyrazolo[4,3-c]pyridin-1-yl)piperidin-1-yl)-6-oxohexyl)oxy)-2-(2,6-dioxopiperidin-3-yl)isoindoline-1,3-dione] | > 80% | 0.0412 µM
CC(=O)N1CCc2c(c(N3CCCc4cc(-c5cnn(C)c5)c(C(F)F)cc43)nn2C2CCN(C(=O)CCCCCCc3cccc4c3C(=O)N(C3CCC(=O)NC3=O)C4=O)CC2)C1 (stereo not drawn) [P-118, 4-(7-(4-(5-Acetyl-3-(7-(difluoromethyl)-6-(1-methyl-1H-pyrazol-4-yl)-3,4-dihydroquinolin-1(2H)-yl)-4,5,6,7-tetrahydro-1H-pyrazolo[4,3-c]pyridin-1-yl)piperidin-1-yl)-7-oxoheptyl)-2-(2,6-dioxopiperidin-3-yl)isoindoline-1,3-dione] | 20 to 50% | 0.0178 µM
CC(=O)N1CCc2c(c(N3CCCc4cc(-c5cnn(C)c5)c(C(F)F)cc43)nn2C2CCN(C(=O)CCCCCCCNc3ccc4c(c3)C(=O)N(C3CCC(=O)NC3=O)C4=O)CC2)C1 (stereo not drawn) [P-119, 5-((8-(4-(5-acetyl-3-(7-(difluoromethyl)-6-(1-methyl-1H-pyrazol-4-yl)-3,4-dihydroquinolin-1(2H)-yl)-4,5,6,7-tetrahydro-1H-pyrazolo[4,3-c]pyridin-1-yl)piperidin-1-yl)-8-oxooctyl)amino)-2-(2,6-dioxopiperidin-3-yl)isoindoline-1,3-dione] | > 80% | 0.0017 µM
CC(=O)N1CCc2c(c(N3CCCc4cc(-c5cnn(C)c5)c(C(F)F)cc43)nn2C2CCN(C(=O)CCCCCNc3ccc4c(c3)C(=O)N(C3CCC(=O)NC3=O)C4=O)CC2)C1 (stereo not drawn) [P-120, 5-((6-(4-(5-acetyl-3-(7-(difluoromethyl)-6-(1-methyl-1H-pyrazol-4-yl)-3,4-dihydroquinolin-1(2H)-yl)-4,5,6,7-tetrahydro-1H-pyrazolo[4,3-c]pyridin-1-yl)piperidin-1-yl)-6-oxohexyl)amino)-2-(2,6-dioxopiperidin-3-yl)isoindoline-1,3-dione] | > 80% | 0.0094 µM
CC(=O)N1CCc2c(c(N3CCCc4cc(-c5cnn(C)c5)c(C(F)F)cc43)nn2C2CCN(C(=O)CCCCCOc3cccc4c3CN(C3CCC(=O)NC3=O)C4=O)CC2)C1 (stereo not drawn) [P-121, 3-(4-((6-(4-(5-Acetyl-3-(7-(difluoromethyl)-6-(1-methyl-1H-pyrazol-4-yl)-3,4-dihydroquinolin-1(2H)-yl)-4,5,6,7-tetrahydro-1H-pyrazolo[4,3-c]pyridin-1-yl)piperidin-1-yl)-6-oxohexyl)oxy)-1-oxoisoindolin-2-yl)piperidine-2,6-dione] | > 80% | 0.0288 µM
CC(=O)N1CCc2c(c(N3CCCc4cc(-c5cnn(C)c5)c(C(F)F)cc43)nn2C2CCN(C(=O)CCCCC#Cc3cccc4c3CN(C3CCC(=O)NC3=O)C4=O)CC2)C1 (stereo not drawn) [P-122, 3-(4-(7-(4-(5-Acetyl-3-(7-(difluoromethyl)-6-(1-methyl-1H-pyrazol-4-yl)-3,4-dihydroquinolin-1(2H)-yl)-4,5,6,7-tetrahydro-1H-pyrazolo[4,3-c]pyridin-1-yl)piperidin-1-yl)-7-oxohept-1-yn-1-yl)-1-oxoisoindolin-2-yl)piperidine-2,6-dione] | > 80% | 0.0844 µM
CC(=O)N1CCc2c(c(N3CCCc4cc(-c5cnn(C)c5)c(C(F)F)cc43)nn2C2CCN(C(=O)CN3CCC(CNc4cccc5c4C(=O)N(C4CCC(=O)NC4=O)C5=O)CC3)CC2)C1 (stereo not drawn) [P-123, 4-(((1-(2-(4-(5-Acetyl-3-(7-(difluoromethyl)-6-(1-methyl-1H-pyrazol-4-yl)-3,4-dihydroquinolin-1(2H)-yl)-4,5,6,7-tetrahydro-1H-pyrazolo[4,3-c]pyridin-1-yl)piperidin-1-yl)-2-oxoethyl)piperidin-4-yl)methyl)amino)-2-(2,6-dioxopiperidin-3-yl)isoindoline-1,3-dione] | > 80% | 0.0203 µM
CC(=O)N1CCc2c(c(N3CCCc4cc(-c5cnn(C)c5)c(C(F)F)cc43)nn2C2CCN(CCCNC(=O)CNc3cccc4c3C(=O)N(C3CCC(=O)NC3=O)C4=O)CC2)C1 (stereo not drawn) [P-124, N-(3-(4-(5-Acetyl-3-(7-(difluoromethyl)-6-(1-methyl-1H-pyrazol-4-yl)-3,4-dihydroquinolin-1(2H)-yl)-4,5,6,7-tetrahydro-1H-pyrazolo[4,3-c]pyridin-1-yl)piperidin-1-yl)propyl)-2-((2-(2,6-dioxopiperidin-3-yl)-1,3-dioxoisoindolin-4-yl)amino)acetamide] | < 20% | > 10 µM
CNC(=O)N1CCc2c(c(N3CCCc4cc(-c5cnn(C)c5)c(C(F)F)cc43)nn2C2CCN(C(=O)CCCCNc3ccc4c(c3)n(C)c(=O)n4C3CCC(=O)NC3=O)CC2)C1 (stereo not drawn) [P-125, 3-(7-(Difluoromethyl)-6-(1-methyl-1H-pyrazol-4-yl)-3,4-dihydroquinolin-1(2H)-yl)-1-(1-(5-((1-(2,6-dioxopiperidin-3-yl)-3-methyl-2-oxo-2,3-dihydro-1H-benzo[d]imidazol-5-yl)amino)pentanoyl)piperidin-4-yl)-N-methyl-1,4,6,7-tetrahydro-5H-pyrazolo[4,3-c]pyridine-5-carboxamide] | > 80% | 0.0421 µM

More lines, now with the values ahead:

inhibition at 0.01 µM (P300) | IC50 (LNCaP cells) | Compound
> 80% | 0.094 µM | CC(=O)N1CCc2c(c(N3CCCc4cc(-c5cnn(C)c5)c(C(F)F)cc43)nn2C2CCN(C(=O)CCCCNc3ccc4c(c3)n(C)c(=O)n4C3CCC(=O)NC3=O)CC2)C1 (stereo not drawn) [P-126, 3-(5-((5-(4-(5-Acetyl-3-(7-(difluoromethyl)-6-(1-methyl-1H-pyrazol-4-yl)-3,4-dihydroquinolin-1(2H)-yl)-4,5,6,7-tetrahydro-1H-pyrazolo[4,3-c]pyridin-1-yl)piperidin-1-yl)-5-oxopentyl)amino)-3-methyl-2-oxo-2,3-dihydro-1H-benzo[d]imidazol-1-yl)piperidine-2,6-dione]
20 to 50% | 0.402 µM | CNC(=O)N1CCc2c(c(N3CCCc4cc(-c5cnn(C)c5)c(C(F)F)cc43)nn2C2CCN(C(=O)CCCCNc3cccc4c3n(C)c(=O)n4C3CCC(=O)NC3=O)CC2)C1 (stereo not drawn) [P-127, 3-(7-(Difluoromethyl)-6-(1-methyl-1H-pyrazol-4-yl)-3,4-dihydroquinolin-1(2H)-yl)-1-(1-(5-((1-(2,6-dioxopiperidin-3-yl)-3-methyl-2-oxo-2,3-dihydro-1H-benzo[d]imidazol-4-yl)amino)pentanoyl)piperidin-4-yl)-N-methyl-1,4,6,7-tetrahydro-5H-pyrazolo[4,3-c]pyridine-5-carboxamide]
20 to 50% | 0.244 µM | CC(=O)N1CCc2c(c(N3CCCc4cc(-c5cnn(C)c5)c(C(F)F)cc43)nn2C2CCN(C(=O)CCCCNc3cccc4c3n(C)c(=O)n4C3CCC(=O)NC3=O)CC2)C1 (stereo not drawn) [P-128, 3-(4-((5-(4-(5-Acetyl-3-(7-(difluoromethyl)-6-(1-methyl-1H-pyrazol-4-yl)-3,4-dihydroquinolin-1(2H)-yl)-4,5,6,7-tetrahydro-1H-pyrazolo[4,3-c]pyridin-1-yl)piperidin-1-yl)-5-oxopentyl)amino)-3-methyl-2-oxo-2,3-dihydro-1H-benzo[d]imidazol-1-yl)piperidine-2,6-dione]
> 80% | 0.0002 µM | CNC(=O)N1CCc2c(c(N3CCCc4cc(-c5cnn(C)c5)c(C(F)F)cc43)nn2C2CCN(C(=O)CCCCCCNc3ccc4c(c3)n(C)c(=O)n4C3CCC(=O)NC3=O)CC2)C1 (stereo not drawn) [P-129, 3-(7-(difluoromethyl)-6-(1-methyl-1H-pyrazol-4-yl)-3,4-dihydroquinolin-1(2H)-yl)-1-(1-(7-((1-(2,6-dioxopiperidin-3-yl)-3-methyl-2-oxo-2,3-dihydro-1H-benzo[d]imidazol-5-yl)amino)heptanoyl)piperidin-4-yl)-N-methyl-1,4,6,7-tetrahydro-5H-pyrazolo[4,3-c]pyridine-5-carboxamide]
> 80% | 0.0005 µM | CC(=O)N1CCc2c(c(N3CCCc4cc(-c5cnn(C)c5)c(C(F)F)cc43)nn2C2CCN(C(=O)CCCCCCNc3ccc4c(c3)n(C)c(=O)n4C3CCC(=O)NC3=O)CC2)C1 (stereo not drawn) [P-130, 3-(5-((7-(4-(5-acetyl-3-(7-(difluoromethyl)-6-(1-methyl-1H-pyrazol-4-yl)-3,4-dihydroquinolin-1(2H)-yl)-4,5,6,7-tetrahydro-1H-pyrazolo[4,3-c]pyridin-1-yl)piperidin-1-yl)-7-oxoheptyl)amino)-3-methyl-2-oxo-2,3-dihydro-1H-benzo[d]imidazol-1-yl)piperidine-2,6-dione]

Reference: patent publication US20230073777A1, “CYCLIC-AMP RESPONSE ELEMENT BINDING PROTEIN (CBP) AND/OR ADENOVIRAL E1A BINDING PROTEIN OF 300 KDA (P300) DEGRADATION COMPOUNDS AND METHODS OF USE” (CULLGEN (SHANGHAI), INC., priority 2019, published 2023)
